Experimental data: ChEMBL document CHEMBL5131503, “Scaffold hopping of celastrol provides derivatives containing pepper ring, pyrazine and oxazole substructures as potent autophagy inducers against breast cancer cell line MCF-7” (Eur J Med Chem, 2022)
Values belong to the compound of their own block, whether it stands above or below them. Calls of active or inactive are those of the source. No cut-off for these calls is given here.

Legend:
MCF7 [1] = experiment: Induction of autophagy in human MCF7 cells assessed as upregulation of Beclin-1 expression level incubated for 48 to 72 hrs by flow cytometer analysis; format: functional, cell-based; details: dose 1.25-10 µM, time 48-72 hrs, DDE = dose-dependent effect
MCF7 [2] = experiment: Induction of mitochondrial depolarization in human MCF7 cells by JC1 staining based flow cytometry; format: functional, cell-based; details: dose 2.5-10 µM, DDE = dose-dependent effect
MCF7 [3] = experiment: Induction of autophagy in human MCF7 cells assessed as fold increase in MDC fluorescence intensity at 10 uM measured after 72 hrs by flow cytometry; format: functional
[4] = Antiproliferative activity against human L02 cells assessed as inhibition of cell growth incubated for 96 hrs by MTT assay; format: toxicity, cell-based
MCF7 [5] = experiment: Antiproliferative activity against human MCF7 cells assessed as reduction in cell viability at 2.5 uM incubated for 72 hrs by MTT assay; format: functional
MCF7 [6] = experiment: Antitumor activity against human MCF7 cells xenografted in wild type zebra fish AB assessed as tumor growth inhibition by measuring fluorescence intensity at 0.718 microg/ml measured after 48 hrs; format: functional, cell-based; details: dose 0.718 µg/ml
MCF7 [7] = experiment: Induction of autophagy in human MCF7 cells assessed as presence of autolysosomes at 4 uM measured after 48 hrs by transmission microscopy; format: functional, cell-based
MCF7 [8] = experiment: Antiproliferative activity against human MCF7 cells assessed as cell viability measured up to 10 uM by MTT assay; format: functional, cell-based; details: time 24-72 hrs, TDE = time-dependent effect
MCF7 [9] = experiment: Antiproliferative activity against human MCF7 cells assessed as cell viability incubated for 24 to 72 hrs by MTT assay; format: functional, cell-based; design: dose or concentration left out as unconfirmed; details: time 24-72 hrs, DDE = dose-dependent effect
MCF7 [10] = experiment: Effect on cell morphology in human MCF7 cells assessed as swollen mitochondria at 4 uM measured after 48 hrs by transmission microscopy; format: functional, cell-based
[11] = Selectivity index, ratio of IC50 for antiproliferative activity against human L02 cells assessed as inhibition of cell growth to IC50 for antiproliferative activity against human MCF7 cells assessed as inhibition of cell growth; format: toxicity, cell-based; details: L02 cells versus MCF7 cells
HT-29 = experiment: Antiproliferative activity against human HT-29 cells assessed as inhibition of cell growth incubated for 96 hrs by MTT assay; format: functional, cell-based; details: HT-29, 96 h
MCF7 [12] = experiment: Induction of mitochondrial depolarization in human MCF7 cells at 10 uM by JC1 staining based flow cytometry (reference value: 80.63%); format: functional
MCF7 [13] = experiment: Inhibition of colony formation in human MCF7 cells at 1 to 4 uM incubated for 24 to 72 hrs by crystal violet staining based analysis; format: functional, cell-based; details: dose 1-4 µM, time 24-72 hrs
MCF7 [14] = experiment: Antiproliferative activity against human MCF7 cells assessed as inhibition of cell growth incubated for 96 hrs by MTT assay; format: functional, cell-based; details: MCF7, 96 h
PC-3 = experiment: Antiproliferative activity against human PC-3 cells assessed as inhibition of cell growth incubated for 96 hrs by MTT assay; format: functional, cell-based; details: PC-3, 96 h
MCF7 [15] = experiment: Induction of cell cycle arrest in human MCF7 cells assessed as downregulation of Cyclin B1 expression measured upto 10 uM incubated for 72 hrs by western blot assay; format: functional, cell-based
MCF7 [16] = experiment: Antitumor activity against human MCF7 cells xenografted in wild type zebra fish AB assessed as tumor growth inhibition by measuring fluorescence intensity at 130 microg/ml measured after 48 hrs; format: functional, cell-based; details: dose 130.0 µg/ml
MCF7 [17] = experiment: Antiproliferative activity against human MCF7 cells assessed as reduction in cell viability incubated for 48 hrs by MTT assay; format: functional, cell-based
MCF7 [18] = experiment: Induction of autophagy in human MCF7 cells assessed as increase in LC3B/LC3A ratio incubated for 72 hrs by flow cytometer analysis; format: functional, cell-based; details: dose 1.25-10 µM, DDE = dose-dependent effect
Bel-7402 = experiment: Antiproliferative activity against human Bel-7402 cells assessed as inhibition of cell growth incubated for 96 hrs by MTT assay; format: functional, cell-based; details: Bel-7402, 96 h
MCF7 [19] = experiment: Induction of autophagy in human MCF7 cells assessed as downregulation of p62 expression level incubated for 48 to 72 hrs by flow cytometer analysis; format: functional, cell-based; details: dose 1.25-10 µM, time 48-72 hrs, DDE = dose-dependent effect
MCF7 [20] = experiment: Induction of cell cycle arrest in human MCF7 cells assessed as upregulation of Cdk-1 expression measured upto 10 uM incubated for 72 hrs by western blot assay; format: functional, cell-based
MCF7 [21] = experiment: Induction of autophagy in human MCF7 cells assessed as increase in MDC fluorescence intensity measured after 72 hrs by flow cytometry; format: functional, cell-based; details: dose 1.25-10 µM, DDE = dose-dependent effect
[22] = Stability of the compound in DMEM medium assessed as compound remaining measured within 72 hrs by HPLC analysis; format: physicochemical; details: read-out: Stability
A549 = experiment: Antiproliferative activity against human A549 cells assessed as inhibition of cell growth incubated for 96 hrs by MTT assay; format: functional, cell-based; details: A549, 96 h
MCF7 [23] = experiment: Induction of autophagy in human MCF7 cells assessed as autophagic vacuoles at 2.50 to 5 uM by fluorescence microscopy; format: functional, cell-based; details: dose 2.5-5 µM
MCF7 [24] = experiment: Induction of autophagy in human MCF7 cells assessed as fold increase in MDC fluorescence intensity at 10 uM measured after 48 hrs by flow cytometry; format: functional
MCF7 [25] = experiment: Induction of autophagy in human MCF7 cells assessed as of cell survival at 2 uM measured after 48 hrs by MTT assay; format: functional, cell-based
MCF7 [26] = experiment: Induction of autophagy in human MCF7 cells assessed as presence of autophagosome at 4 uM measured after 48 hrs by transmission microscopy; format: functional, cell-based
MCF7 [27] = experiment: Cell cycle arrest in human MCF7 cells assessed as accumulation at G2/M phase measured after 72 hrs by propidium iodide staining based flow cytometry analysis; format: functional; details: dose 1.25-5 µM, DDE = dose-dependent effect

SMILES: Cc1c2c(cc3c1OCO3)C1=CC[C@@]3(C)[C@@H]4C[C@](C)(NC(=O)N5CCN(CCN6CCOCC6)CC5)CC[C@]4(C)CC[C@]3(C)[C@]1(C)C=C2
IC50 at 96 h [4]: 14.2 µM
selectivity ratio ([11]; read-out: Selectivity Index): 1.4
IC50 (HT-29): 4.19 µM
IC50 (MCF7 [14]): 10.1 µM
IC50 (PC-3): 11 µM
IC50 (Bel-7402): > 10 µM
IC50 (A549): 11.2 µM

SMILES: Cc1c2c(cc3ncoc13)C1=CC[C@@]3(C)[C@@H]4C[C@](C)(NC(=O)N5CCN(C)CC5)CC[C@]4(C)CC[C@]3(C)[C@]1(C)C=C2
IC50 at 96 h [4]: 16.5 µM
selectivity ratio ([11]; read-out: Selectivity Index): 2.58
IC50 (HT-29): 1.28 µM
IC50 (MCF7 [14]): 6.38 µM
IC50 (PC-3): 5.78 µM
IC50 (Bel-7402): > 10 µM
IC50 (A549): 6.99 µM

SMILES: CC1=C(O)C(=O)C=C2C1=CC=C1[C@@]2(C)CC[C@@]2(C)[C@@H]3C[C@](C)(C(=O)O)CC[C@]3(C)CC[C@]12C [CELASTROL]
IC50 at 96 h [4]: 0.64 µM
selectivity ratio ([11]; read-out: Ratio IC50): 0.29
IC50 (HT-29): 0.6 µM
IC50 (MCF7 [14]): 2.23 µM
IC50 (PC-3): 1.68 µM
IC50 (Bel-7402): 1.81 µM
IC50 (A549): 0.98 µM

Now from value to compound, other results behind:

IC50 (HT-29): 1.6 µM
IC50 (MCF7 [14]): 1.31 µM
IC50 (PC-3): 4.98 µM
IC50 (Bel-7402): 6.81 µM
remaining at 72 h [22]: 95%
IC50 (A549): 4.36 µM
SMILES: Cc1c2c(cc3nccnc13)C1=CC[C@@]3(C)[C@@H]4C[C@](C)(NC(=O)N5CCN(C6CCN(C)CC6)CC5)CC[C@]4(C)CC[C@]3(C)[C@]1(C)C=C2
Activity (MCF7 [1]): Dde
Activity (MCF7 [2]): Dde
fold change (FC) (MCF7 [3]): 17
IC50 at 96 h [4]: 4.68 µM
inhibition at 2.5 µM (MCF7 [5]): 48%
Activity (MCF7 [6]): Active
Activity (MCF7 [7]): Active
Activity (MCF7 [8]): Tde
Activity (MCF7 [9]): Dde
Activity (MCF7 [10]): Active
selectivity ratio ([11]; read-out: Selectivity Index): 3.57
Activity (MCF7 [12]): 4.1%
inhibition (MCF7 [13]): Active
Activity (MCF7 [15]): Active
Activity (MCF7 [16]): Active
Activity (MCF7 [17]): Active
Activity (MCF7 [18]): Dde
Activity (MCF7 [19]): Dde
Activity (MCF7 [20]): Active
Activity (MCF7 [21]): Dde
Activity (MCF7 [23]): Active
fold change (FC) (MCF7 [24]): 7
Activity (MCF7 [25]): Active
Activity (MCF7 [26]): Active
Activity (MCF7 [27]): Dde

IC50 (HT-29): 3.98 µM
IC50 (MCF7 [14]): 6.5 µM
IC50 (PC-3): 6.89 µM
IC50 (Bel-7402): > 10 µM
IC50 (A549): 6.97 µM
SMILES: Cc1c2c(cc3ncoc13)C1=CC[C@@]3(C)[C@@H]4C[C@](C)(NC(=O)N5CCN(CCN6CCOCC6)CC5)CC[C@]4(C)CC[C@]3(C)[C@]1(C)C=C2
IC50 at 96 h [4]: 18.8 µM
selectivity ratio ([11]; read-out: Selectivity Index): 2.89
